Assay results from article PMC7932521, “2-aminobenzimidazoles for leishmaniasis: From initial hit discovery to in vivo profiling” (PLoS Neglected Tropical Diseases, 2021).
Values after ≈ are worked out from the molar mass of the structure shown. Where two headings read alike, the source gives them in different places.

Legend:
Medium protein binding = format: in vitro ADME; conditions: for Media Binding: S1 Data; for Medium binding: % bound
Protocol: For plasma protein binding, pooled plasma was thawed in a water bath at 37°C and centrifuged at 4,000 rpm for 5 min to remove any clots. The pH value was measured and adjusted to 7.4, if necessary. RPMI medium (pH 7.4) supplemented with 10% fetal calf serum was used. Working solutions (400 μM) of test compounds were prepared by diluting appropriate volume of the stock solutions with DMSO. Working solutions (400 μM) were spiked into plasma to achieve 2 μM final concentrations as loading solutions. The concentration of organic solvent in the final solutions was 0.5% DMSO. The dialysis instrument was assembled following manufacturer’s instructions. Aliquots of loading solution were loaded in triplicate to the donor side of each dialysis well and dialyzed against an equal volume of dialysis buffer. The plate was shaken and incubated for 6 hours in a humidified incubator with 5% CO2 at 37°C. At the end of dialysis, aliquots of dialysate and retentate were removed into sample collection plates. Each sample was matched with an opposite blank buffer or plasma, with a ratio of matrix:dialysis buffer of 50:50 (v:v) in each well and participated with 500μL of stop solution (50% acetonitrile/methanol; internal standards—200 ng/mL tolbutamide, labetalol and 50 ng/mL metformin). All sample collection plates were rotated at 800 rpm for 5 min to mix samples and centrifuged at 20°C, 4000 rpm for 20 min. Aliquots of supernatant of all the samples were removed and injected into LC-MS/MS. Results were calculated as the percentage of remaining parent compound in plasma or medium after incubation.

[1] = tested on: Leishmania infantum MHOM/MA(BE)/67/ITMAP263 amastigotes; test: L. infantum intracellular amastigote assay in PMM; format: cell-based; conditions: for SI: selectivity index (CC50 / IC50): CC50 / L. infantum IC50; for IC50: read-out: L. infantum IC50
Procedure, shortened: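 Mouse peritoneal macrophages infected with hamster spleen-derived amastigotes (2 h, 37°C), then exposed to 4-fold dilutions from 64 μM (DMSO <1%) for 5 days at 37°C, 5% CO2. Burden scored microscopically after Giemsa staining as percent reduction vs untreated wells; IC50 as geometric mean of ≥2 experiments.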

Kv11.1 (hERG) = target: T1, Kv11.1 (hERG) (Homo sapiens, UniProt Q12809); test: hERG thallium influx assay; format: cell-based; conditions: KCl, read-out: Bioprofiling 6pt Thallium Influx Antag Kv11.1 (hERG) CHO Human IC50
T1 construct: host or cells: T-REx-CHO, doxycycline-induced
T1 sequence (Q12809 whole entry): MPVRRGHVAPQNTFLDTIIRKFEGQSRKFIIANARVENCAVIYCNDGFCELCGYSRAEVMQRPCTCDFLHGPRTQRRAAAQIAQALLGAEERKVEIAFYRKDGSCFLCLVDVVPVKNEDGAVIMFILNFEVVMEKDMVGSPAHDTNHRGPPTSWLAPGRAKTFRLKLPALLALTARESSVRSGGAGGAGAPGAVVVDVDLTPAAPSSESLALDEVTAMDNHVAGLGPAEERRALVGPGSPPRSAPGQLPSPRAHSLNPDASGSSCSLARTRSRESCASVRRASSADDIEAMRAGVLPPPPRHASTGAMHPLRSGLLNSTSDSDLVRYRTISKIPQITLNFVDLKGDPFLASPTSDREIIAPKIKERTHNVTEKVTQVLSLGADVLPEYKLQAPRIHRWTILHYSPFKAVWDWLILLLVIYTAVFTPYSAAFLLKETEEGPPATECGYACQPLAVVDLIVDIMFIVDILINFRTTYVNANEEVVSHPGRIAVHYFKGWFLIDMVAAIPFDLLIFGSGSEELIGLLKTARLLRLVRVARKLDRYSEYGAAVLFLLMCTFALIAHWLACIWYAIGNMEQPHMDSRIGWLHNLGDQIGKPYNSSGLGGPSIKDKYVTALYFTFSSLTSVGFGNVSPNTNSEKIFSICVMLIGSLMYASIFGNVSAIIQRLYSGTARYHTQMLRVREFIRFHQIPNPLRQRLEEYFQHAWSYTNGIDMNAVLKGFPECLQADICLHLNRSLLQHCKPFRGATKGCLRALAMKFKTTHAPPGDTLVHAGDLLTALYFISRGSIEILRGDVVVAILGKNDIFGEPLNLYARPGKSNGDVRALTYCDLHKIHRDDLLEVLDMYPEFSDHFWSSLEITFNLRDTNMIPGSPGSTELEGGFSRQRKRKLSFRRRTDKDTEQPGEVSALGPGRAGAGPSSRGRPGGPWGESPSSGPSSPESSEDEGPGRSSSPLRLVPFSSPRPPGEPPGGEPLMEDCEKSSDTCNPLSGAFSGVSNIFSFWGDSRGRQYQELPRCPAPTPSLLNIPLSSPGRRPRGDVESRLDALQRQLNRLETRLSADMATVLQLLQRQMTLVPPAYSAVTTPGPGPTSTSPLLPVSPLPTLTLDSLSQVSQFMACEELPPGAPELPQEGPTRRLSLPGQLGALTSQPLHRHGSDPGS
Protocol: This was adapted from the literature method;[28] briefly, hERG functional activity was measured in an inducible hERG T-RExTM-CHO Cell line (ThermoFisher #K1237) using thallium influx as a surrogate indicator of potassium ion channel activity. Thallium enhances the fluorescent signal of BTC-AM dye (ThermoFisher #B6791). 384 well plates were seeded at 15,000 cells/well with doxycycline hyclate, included to induce expression of the hERG channel, and grown for 48 hours. Media was removed and cells were loaded with 4 μM dye for 90 mins in a low potassium buffer, dye was then removed and compound added to the cells in a high potassium buffer in a 6 point 1:3 dilution dose series (maximum final concentration of 30 μM). After 30 mins of compound incubation, channel activity was recorded upon addition of thallium buffer using a Tetra plate reader. The slope of the kinetic read was used to calculate channel activity.

B2 = target: T2, B2 (Homo sapiens, UniProt P30411); test: Bioprofiling 6pt Antag B2 CHO; format: cell-based; conditions: antagonist readout vs Bradykinin
T2 construct: expressed in transfected cells; host or cells: CHO
T2 sequence (P30411 1-391): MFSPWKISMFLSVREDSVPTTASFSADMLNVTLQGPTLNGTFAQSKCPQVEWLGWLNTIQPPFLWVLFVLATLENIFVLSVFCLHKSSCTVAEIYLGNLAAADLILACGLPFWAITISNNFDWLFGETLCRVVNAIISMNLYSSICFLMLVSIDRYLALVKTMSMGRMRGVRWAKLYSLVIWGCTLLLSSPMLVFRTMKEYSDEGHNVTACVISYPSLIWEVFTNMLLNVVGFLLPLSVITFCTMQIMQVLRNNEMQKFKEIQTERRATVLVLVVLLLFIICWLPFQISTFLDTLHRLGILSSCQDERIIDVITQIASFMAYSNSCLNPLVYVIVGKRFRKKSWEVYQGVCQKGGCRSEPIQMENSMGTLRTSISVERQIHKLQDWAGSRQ
Protocol: (§1) The compounds were evaluated across a panel of 20 liability targets (37 functional assays) which included functional cell-based GPCRs and ion channels in both agonist and antagonist readout, measuring calcium flux and biochemical functional assays for nuclear hormone receptors and phosphodiesterases using TR-FRET format, in a 6 point 1:3 dilution dose series (maximum final concentration of 10 μM).

H1 = target: T3, H1 (Homo sapiens, UniProt P35367); test: Bioprofiling 6pt Ag H1 CHO; format: cell-based; conditions: agonist readout
T3 construct: expressed in transfected cells; host or cells: CHO
T3 sequence (P35367 whole entry): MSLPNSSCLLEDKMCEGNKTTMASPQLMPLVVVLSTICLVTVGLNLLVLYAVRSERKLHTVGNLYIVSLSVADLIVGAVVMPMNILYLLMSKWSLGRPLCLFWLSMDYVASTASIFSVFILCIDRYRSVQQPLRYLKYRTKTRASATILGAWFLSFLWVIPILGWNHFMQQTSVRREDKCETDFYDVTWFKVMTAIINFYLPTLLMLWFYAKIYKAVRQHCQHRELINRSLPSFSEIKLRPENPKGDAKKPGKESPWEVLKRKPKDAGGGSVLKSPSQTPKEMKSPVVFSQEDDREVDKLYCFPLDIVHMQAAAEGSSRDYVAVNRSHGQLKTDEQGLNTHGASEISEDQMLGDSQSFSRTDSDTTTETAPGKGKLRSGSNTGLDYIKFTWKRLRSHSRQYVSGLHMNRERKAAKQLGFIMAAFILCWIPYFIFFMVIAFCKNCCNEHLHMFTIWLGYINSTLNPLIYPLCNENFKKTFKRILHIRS
Protocol: as §1

MRC-5 cells = test: MRC-5 cytotoxicity; format: cell-based; conditions: for IC50: Homo sapiens, MRC5, panel sheet, average, read-out: IC-50 MRC-5 cells; for CC50: S1 Data
MRC-5 cytotoxicity = format: cell-based; conditions: human, MRC-5 cells; S1 Data
Kinetic solubility = format: physicochemical; conditions: for solubility kinetic at 24 h: PBS buffer pH 7.4, aqueous buffer, kinetic from dmso stock, PBS pH 7.4, read-out: KS PBS - pH7.4; for KS pH 7.4: kinetic solubility
Protocol: The precipitates on the incubation plate were removed by centrifugation (15 min, 3000 rpm, r.t.); the compound concentration in the resulting supernatant was determined by LC-MS/MS. Results were calculated as the concentration of remaining compound in solution after incubation.

[2] = Leishmania infantum, 120 h, intracellular amastigotes in PMM, 5 days

SMILES	Media Binding (Medium protein binding)	SI: selectivity index (CC50 / IC50) [1]	IC50 [1, 2]	IC50 ([1]; Leishmania infantum, S1 Data)	IC50 (Kv11.1 (hERG))	IC50 (B2)	EC50 (H1)	IC50 (MRC-5 cells)	CC50 (MRC-5 cytotoxicity)	solubility kinetic at 24 h (Kinetic solubility)	KS PBS - pH 2 (Kinetic solubility)	KS pH 7.4 (Kinetic solubility)	Medium binding (Medium protein binding)	potency compared to initial hit 1 ([1]; L. infantum IC50)	potency compared to parent compound 30 ([1]; L. infantum IC50)	IC50 ([1]; intracellular amastigotes in PMM, 5 days)	CC50 (MRC-5 cells)
Cn1nccc1C(=O)Nc1nc2ccc(C#N)cc2n1CC(C)(C)C [Compound 29, O=C(Nc1n(CC(C)(C)C)c(c2n1)cc(C#N)cc2)c3n(C)ncc3]	57.20%	7	4.1 µM	4.12 µM	> 30 µM	> 10 µM	> 10 µM	> 64 µM	14.9 µM	3.11 µg/mL (≈ 9.24 µM)	1.77 ug/mL	9.2 μM	–	–	–	–	–
Cn1nccc1C(=O)Nc1nc2ccc(C#N)cc2n1CC(F)(F)F [Compound 30, O=C(c1ccnn1C)Nc2nc(ccc(C#N)c3)c3n2CC(F)(F)F]	29.15%	14	2.2 µM	2.22 µM	> 30 µM	> 10 µM	> 10 µM	–	12.8 µM	9.22 µg/mL (≈ 26.5 µM)	10.45 ug/mL	26 μM	29.2%	–	–	–	–
Cn1nc(C(F)(F)F)cc1C(=O)Nc1nc2ccc(C#N)cc2n1CC(F)(F)F [Compound 39, O=C(c1cc(C(F)(F)F)nn1C)Nc2nc(ccc(C#N)c3)c3n2CC(F)(F)F]	88.34%	2	0.5 µM	–	> 30 µM	> 10 µM	> 10 µM	14.7 µM	7.87 µM	0.42 µg/mL (≈ 1.01 µM)	0.42 ug/mL	<1.0 μM	88.3%	10 to 20 fold	4 fold	0.53 µM	–
COc1ccc(C(=O)Nc2nc3ccc(C#N)cc3n2CC(F)(F)F)cn1 [Compound 43, O=C(c1ccc(OC)nc1)Nc2nc(ccc(C#N)c3)c3n2CC(F)(F)F]	56.74%	5	7 µM	6.95 µM	> 30 µM	> 10 µM	> 10 µM	–	> 64 µM	0.38 µg/mL (≈ 1.01 µM)	0.38 ug/mL	–	–	–	–	–	–
N#Cc1ccc2nc(NC(=O)c3ccnc(C(F)(F)F)c3)n(CC(F)(F)F)c2c1 [Compound 44, O=C(c1ccnc(C(F)(F)F)c1)Nc2nc(ccc(C#N)c3)c3n2CC(F)(F)F]	88.65%	5	0.84 µM	–	> 30 µM	> 10 µM	> 10 µM	–	–	0.41 µg/mL (≈ 0.992 µM)	0.41 ug/mL	<1.0 μM	88.7%	10 to 20 fold	–	–	> 64 µM
N#Cc1ccc2nc(NC(=O)c3ccc(C(F)(F)F)nc3)n(CC(F)(F)F)c2c1 [Compound 45, O=C(c1ccc(C(F)(F)F)nc1)Nc2nc(ccc(C#N)c3)c3n2CC(F)(F)F]	83.98%	2	4.3 µM	4.28 µM	> 30 µM	> 10 µM	> 10 µM	–	–	0.41 µg/mL (≈ 0.992 µM)	0.41 ug/mL	–	–	–	–	–	> 64 µM
